From ChEMBL document CHEMBL1150390, “Identification of halosalicylamide derivatives as a novel class of allosteric inhibitors of HCV NS5B polymerase” (Bioorg Med Chem Lett, 2008)

biological target: not listed separately; test: Inhibition of HCV 2b NS5B polymerase; parameters: species or system Hepatitis C virus subtype 2b

With O=C(Nc1ccc(Cl)c(Cl)c1)c1cc(I)cc(I)c1O the IC50 was 17.3 µM.

biological target: Genome polyprotein (Hepatitis C virus genotype 1b (isolate BK) (HCV), UniProt P26663); test: Inhibition of HCV BK NS5B polymerase
Sequence (P26663 2420-3010 limits assumed): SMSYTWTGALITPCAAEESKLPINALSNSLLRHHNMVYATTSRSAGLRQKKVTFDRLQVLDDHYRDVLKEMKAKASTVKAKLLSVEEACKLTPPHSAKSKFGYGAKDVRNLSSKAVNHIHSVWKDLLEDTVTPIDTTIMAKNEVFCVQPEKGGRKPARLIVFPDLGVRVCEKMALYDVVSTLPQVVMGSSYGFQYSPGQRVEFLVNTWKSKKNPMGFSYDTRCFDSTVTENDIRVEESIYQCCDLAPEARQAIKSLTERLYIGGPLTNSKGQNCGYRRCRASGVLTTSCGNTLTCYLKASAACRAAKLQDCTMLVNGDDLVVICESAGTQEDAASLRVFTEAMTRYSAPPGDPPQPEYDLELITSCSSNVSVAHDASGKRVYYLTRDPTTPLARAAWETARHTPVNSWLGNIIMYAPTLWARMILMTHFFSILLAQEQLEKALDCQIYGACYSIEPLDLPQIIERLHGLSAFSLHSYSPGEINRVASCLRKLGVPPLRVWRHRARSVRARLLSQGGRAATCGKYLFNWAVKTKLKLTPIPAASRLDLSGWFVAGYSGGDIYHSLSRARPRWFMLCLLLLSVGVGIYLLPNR

O=C(Nc1ccc(Cl)c(Cl)c1)c1cc(I)cc(I)c1O showed an IC50 of 8.6 µM.

biological target: not listed separately; test: Inhibition of HCV 2a NS5B polymerase; parameters: species or system Hepatitis C virus subtype 2a

Work on O=C(Nc1ccc(Cl)c(Cl)c1)c1cc(I)cc(I)c1O yielded an IC50 of 16.2 µM.

biological target: not listed separately; test: Inhibition of HCV 1a NS5B polymerase; parameters: species or system Hepatitis C virus subtype 1a

With O=C(Nc1ccc(Cl)c(Cl)c1)c1cc(I)cc(I)c1O the IC50 was 5.7 µM.

biological target: not listed separately; test: Inhibition of HCV 3a NS5B polymerase; parameters: species or system Hepatitis C virus subtype 3a

O=C(Nc1ccc(Cl)c(Cl)c1)c1cc(I)cc(I)c1O showed an IC50 of 14.3 µM.

system: Hepatitis C virus; test: Inhibition of HCV 1b NS5B polymerase; parameters: species or system Hepatitis C virus subtype 1b

O=C(Nc1ccc(Cl)cc1)c1cc(I)cc(I)c1O and O=C(Nc1ccc(Br)cc1)c1cc(I)cc(I)c1O are within 1.5-fold of each other in IC50: 11 µM for the first, 10 µM for the second.

Compared with O=C(Nc1ccccc1)c1cc(I)cc(I)c1O, O=C(Nc1ccc(Nc2ccccc2)cc1)c1cc(I)cc(I)c1O is 24-fold lower in IC50: 46 µM for the first, 1.9 µM for the second.

O=C(Nc1ccc(F)cc1)c1cc(I)cc(I)c1O and Cc1ccc(NC(=O)c2cc(I)cc(I)c2O)cc1 are within 1.5-fold of each other in IC50: 33 µM for the first, 37 µM for the second.

First: CN(C(=O)c1cc(I)cc(I)c1O)c1ccc(Cl)c(Cl)c1
Second: O=C(Nc1ccc(Cl)c(Cl)c1)c1cc(I)cc(I)c1O
The IC50 of the first is higher: over 200 µM for the first, 4.7 µM for the second.

COc1cc(Br)ccc1NC(=O)c1cc(Cl)cc(Cl)c1OC and COc1c(Cl)cc(Cl)cc1C(=O)Nc1ccc(Br)cc1 cannot be ordered by IC50: over 200 µM for the first, over 200 µM for the second.

First: Cc1cc(NC(=O)c2cc(Cl)cc(Cl)c2O)ccc1Cl
Second: Cc1cc(NC(=O)c2cc(Cl)cc(Cl)c2N)ccc1Cl
The IC50 of the first is 12-fold lower: 9 µM for the first, 108 µM for the second.

Going from O=C(Nc1cccc(Br)c1)c1cc(Br)cc(Br)c1O to Nc1c(Br)cc(Br)cc1C(=O)Nc1cccc(Br)c1, the IC50 rises from 6.9 µM to 131 µM (19-fold). The first is the more potent here.

Going from O=C(Nc1ccc(Oc2ccccc2)cc1)c1cc(I)cc(I)c1O to COc1ccc(NC(=O)c2cc(I)cc(I)c2O)cc1, the IC50 rises from 5.6 µM to 46 µM (8.2-fold).

Compared with Nc1ccc(NC(=O)c2cc(I)cc(I)c2O)cc1, O=C(Nc1ccc(O)cc1)c1cc(I)cc(I)c1O is 1.8-fold higher in IC50: 30 µM for the first, 54 µM for the second.

Compared with Nc1c(Br)cc(Br)cc1C(=O)Nc1ccc(Br)cc1, O=C(Nc1ccc(Br)cc1)c1cc(Br)cc(Br)c1O [TRIBROMSALAN] is 15-fold lower in IC50: 98 µM for the first, 6.7 µM for the second. The second is the more potent here.

Oc1c(I)cc(I)cc1/C=N/c1ccc(Cl)cc1Cl and O=C(Nc1ccc(Cl)cc1O)c1cc(I)cc(I)c1O are within 1.5-fold of each other in IC50: 8.8 µM for the first, 8.6 µM for the second.

First: CN(C(=O)c1cc(Br)cc(Br)c1O)c1ccc(Cl)cc1
Second: O=C(Nc1ccc(Cl)c(Cl)c1)c1cc(Cl)cc(Cl)c1O [3,3',4',5-TETRACHLOROSALICYLANILIDE]
The IC50 of the first is 16-fold higher: 135 µM for the first, 8.6 µM for the second. The second is the more potent here.

Compared with CC(=O)Oc1c(I)cc(I)cc1C(=O)Nc1ccc(Cl)c(Cl)c1, Nc1c(Cl)cc(Cl)cc1C(=O)Nc1ccc(Cl)c(Cl)c1 is lower in IC50: over 200 µM for the first, 102 µM for the second. The second is the more potent here.
